These results are taken from patent US20240360100A1, “HETEROCYCLIC COMPOUNDS AS SEROTONIN (5-HT) 5-HT2A AND 5-HT2C RECEPTOR POSITIVE ALLOSTERIC MODULATORS” (The Board of Regents of The University of Texas System, priority 2021, published 2024).

The nature of series [1]: Solubility of representative compounds (Table 1). Format: physicochemical. The note with it: solvents listed.
A further series addresses T1, 5-HT2CR (Homo sapiens, UniProt P28335).
T1 construct: expressed in transfected cells
T1 sequence (P28335 33-458): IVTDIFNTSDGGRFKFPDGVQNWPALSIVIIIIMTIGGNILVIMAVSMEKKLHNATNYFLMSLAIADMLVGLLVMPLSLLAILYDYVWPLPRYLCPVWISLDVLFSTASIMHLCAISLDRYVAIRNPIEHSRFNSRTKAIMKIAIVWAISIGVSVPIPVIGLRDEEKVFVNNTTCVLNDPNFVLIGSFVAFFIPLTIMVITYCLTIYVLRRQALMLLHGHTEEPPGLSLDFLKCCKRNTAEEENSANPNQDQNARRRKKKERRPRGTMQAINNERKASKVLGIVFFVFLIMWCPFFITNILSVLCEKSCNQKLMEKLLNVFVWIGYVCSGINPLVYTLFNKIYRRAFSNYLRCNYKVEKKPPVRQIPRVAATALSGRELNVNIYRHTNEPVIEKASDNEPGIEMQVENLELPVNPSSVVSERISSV
As to the kind of experiment: 5-HT-evoked Cai2+ release in vitro. Type of series: cell-based. From the text: General Method for In Vitro Pharmacological Assessment of Compounds of the Invention. The Chinese hamster ovary (CHO) cell lines stably transfected with human unedited (INI) h5-HT2CR (h5-HT2CR—CHO cells) or the human h5-HT2AR (h5-HT2AR—CHO cells) were a generous gift of K. Berg and W. Clarke (University of Texas Health Science Center, San Antonio, TX) (Berg et al., Molecular Pharmacology, 46:477-484, 1994; Ding et al., ACS Chemical Neuroscience, 3:538-545, 2012). […] Changes in Cai^2+ levels were determined using the calcium sensitive dye Calcium 4 or Calcium 6 (FLIPR No-wash kit, Molecular Devices, Sunnyvale, CA). […] The fluorescence readings were then adopted to evaluate the allosteric modulation of 5-HT-induced Cai^2+ release. FlexStation 3 or FLIPR^TETRA was used to measure fluorescence. For FlexStation 3, a 17 s baseline was established before the compound was added, and fluorescence was recorded every 1.7 s thereafter for 240 s. The maximum peak height of each well was determined by SoftMax software (Pro 5.4.5). For FLIPR^TETRA, a 10 s baseline was established before adding the compound, and then record the fluorescence every 1 s for 120 s after the compound or 360 s after 5-HT. The maximum peak height of each well was determined by ScreenWorks 4.0 software. After the final reading, the cells were fixed in 2% paraformaldehyde (Sigma) overnight. […]

Consider “4-phenethyl-N-(2-(piperazin-1-yl)ethyl)piperidine-2-carboxamide [AB0131]”, for which the Solubility entry in series [1] is “EtOH, DMSO”. As to `CCCCCCCCCCC[C@@H]1CCN[C@H](C(=O)N[C@@H]([C@H]2O[C@H](SC)[C@H](O)[C@@H](O)[C@H]2O)[C@H](C)Cl)C1.Cl` [PNU-69176E], the agonist-like properties result on 5-HT2CR (highest concentration tested in vitro (10 μM)) is reported as “agonist-like properties observed”. In addition, the “5-HT-evoked Cai2+ release” value on 5-HT2CR (profile of a 5-HT2CR PAM) was “potentiated”. With “N,N-bis(2-hydroxyethyl)-4-phenethylpiperidine-2-carboxamide [AB0128]”, the Solubility result in series [1] was “EtOH, DMSO”. For the molecule “N-(2-(1,1-dioxidothiomorpholino)ethyl)-4-phenethylpiperidine-2-carboxamide [AB0132]”, the Solubility result in series [1] is reported as “EtOH, DMSO”. The same measure, in the same setting: to “N-(2-(2-hydroxyethoxy)ethyl)-4-phenethylpiperidine-2-carboxamide [AB0136]” belongs “EtOH, DMSO”; to “N-(2-(4-methylpiperazin-1-yl)ethyl)-4-phenethylpiperidine-2-carboxamide [AB0146]”, “EtOH, DMSO”.

On to “N-(2-(dimethylamino)ethyl)-4-phenethylpiperidine-2-carboxamide [AB0124]”, for which the Solubility entry in series [1] was “EtOH, DMSO”.

As for “N-(2-hydroxyethyl)-4-phenethylpiperidine-2-carboxamide [AB0123]”, the Solubility entry in series [1] is reported as “EtOH, DMSO”. On to “N-(2-hydroxyethyl)-N-methyl-4-phenethylpiperidine-2-carboxamide [AB0127]”, for which the Solubility result in series [1] is on record as “EtOH, DMSO”. The same measure, in the same setting: next, “N-(2-methoxyethyl)-4-phenethylpiperidine-2-carboxamide [AB0122]”: “EtOH, DMSO”. Same read-out and setting: to “N-(3-morpholinopropyl)-4-phenethylpiperidine-2-carboxamide [AB0145]” belongs “EtOH, DMSO”; to “N-((1S,2S)-1,3-dihydroxy-1-(4-(methylthio)phenyl)propan-2-yl)-4-phenethylpiperidine-2-carboxamide [AB0135]”, “EtOH, DMSO”; to “N-((2R,3R)-1,3-dihydroxybutan-2-yl)-4-phenethylpiperidine-2-carboxamide [AB0126]”, “EtOH, DMSO”. Still for that read-out and setting: next, “N-((2S,3S)-1,3-dihydroxybutan-2-yl)-4-phenethylpiperidine-2-carboxamide [AB0125]”: “EtOH, DMSO”; “N-(azetidin-3-yl)-4-phenethylpiperidine-2-carboxamide [AB0121]”: “EtOH, DMSO”.
